From US7446199B2, “Compositions useful as inhibitors of protein kinases” (Vertex Pharmaceuticals Incorporated, priority 2003, dated 2008)

What was measured:
FLT-3 = target: T1, FLT-3 (Homo sapiens, UniProt P36888); test: Inhibition of FLT-3, radiometric filter-binding assay; assay type: biochemical; conditions: 90 μM ATP, 0.5 mg/mL pE4Y, room temperature
T1 construct: 0.02% BSA and 3 nM FLT-3
T1 sequence (P36888 27-993): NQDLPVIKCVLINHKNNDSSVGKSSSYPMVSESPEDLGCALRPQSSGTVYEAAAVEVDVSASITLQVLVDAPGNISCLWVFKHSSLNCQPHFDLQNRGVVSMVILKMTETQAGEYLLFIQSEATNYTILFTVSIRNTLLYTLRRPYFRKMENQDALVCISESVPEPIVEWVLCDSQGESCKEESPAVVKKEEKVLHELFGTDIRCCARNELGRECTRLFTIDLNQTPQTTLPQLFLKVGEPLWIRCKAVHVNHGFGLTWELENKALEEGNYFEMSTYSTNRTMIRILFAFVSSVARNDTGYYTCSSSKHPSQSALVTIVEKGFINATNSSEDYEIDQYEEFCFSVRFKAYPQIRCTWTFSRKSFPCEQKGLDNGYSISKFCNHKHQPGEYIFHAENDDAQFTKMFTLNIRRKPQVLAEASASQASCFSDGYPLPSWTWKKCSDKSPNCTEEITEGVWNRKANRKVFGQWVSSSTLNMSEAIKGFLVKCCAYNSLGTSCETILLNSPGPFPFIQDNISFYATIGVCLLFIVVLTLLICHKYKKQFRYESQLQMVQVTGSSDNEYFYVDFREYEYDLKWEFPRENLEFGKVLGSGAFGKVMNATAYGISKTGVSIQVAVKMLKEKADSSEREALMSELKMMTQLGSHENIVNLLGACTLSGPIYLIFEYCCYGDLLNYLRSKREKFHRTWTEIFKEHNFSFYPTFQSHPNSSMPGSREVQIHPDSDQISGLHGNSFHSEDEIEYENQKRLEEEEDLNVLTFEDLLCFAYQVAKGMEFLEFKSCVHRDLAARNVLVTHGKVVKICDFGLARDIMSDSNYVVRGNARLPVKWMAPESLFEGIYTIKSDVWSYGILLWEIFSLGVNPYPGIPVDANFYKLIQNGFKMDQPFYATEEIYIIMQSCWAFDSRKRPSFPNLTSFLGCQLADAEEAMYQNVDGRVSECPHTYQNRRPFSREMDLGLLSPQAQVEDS
In short: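 Radiometric filter-binding assay of FLT-3 (3 nM in Solution 2; final conc not stated) phosphorylating poly(Glu,Tyr) 4:1 (0.5 mg/mL) with 90 μM ATP plus [γ-33P]ATP, in HEPES pH 7.5, MgCl2, NaCl, DTT, BSA, 2.5% DMSO. 12-point titration, typically 0.01–5 μM, 20 min at room temperature; TCA-stopped, filtered, scintillation-counted; IC50 or Ki fitted.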

GSK-3β, (AA 1-420) = GSK-3β, (AA 1-420) (Homo sapiens, UniProt P49841); test: GSK-3 inhibition assay, coupled enzyme system; assay type: biochemical; conditions: 20 μM ATP, 300 μM peptide, 20 nM GSK-3b, 30° C.; read-out: Ki values (GSK3)
In short: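 Pyruvate kinase/lactate dehydrogenase-coupled NADH assay with 20 nM enzyme, 20 μM ATP and 300 μM peptide in HEPES pH 7.5, 1.5% DMSO, 30° C. Compound (0.002–30 μM, 12-point) preincubated 10 min before ATP start; rates over 10 min gave Ki.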

GSK-3β, (AA 1-420), sequence (P49841 whole entry, the tested form may be a part): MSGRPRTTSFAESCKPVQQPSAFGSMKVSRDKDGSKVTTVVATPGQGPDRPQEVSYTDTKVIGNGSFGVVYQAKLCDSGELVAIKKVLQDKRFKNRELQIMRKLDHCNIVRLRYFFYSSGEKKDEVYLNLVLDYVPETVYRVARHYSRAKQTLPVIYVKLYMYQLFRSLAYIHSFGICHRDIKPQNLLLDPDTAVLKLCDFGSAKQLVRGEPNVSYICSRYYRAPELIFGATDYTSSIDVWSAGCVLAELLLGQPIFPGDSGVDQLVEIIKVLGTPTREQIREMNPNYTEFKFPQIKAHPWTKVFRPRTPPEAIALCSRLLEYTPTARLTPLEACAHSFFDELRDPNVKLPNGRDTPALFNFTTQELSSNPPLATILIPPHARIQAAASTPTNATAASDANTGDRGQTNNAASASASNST

| Ki (FLT-3) | Ki (GSK-3β, (AA 1-420)) | Structure (SMILES) |
| --- | --- | --- |
| 1 to 12.5 µM | 1 to 12.5 µM | Fc1cccc(-n2cnnc2-c2c[nH]c3ncc(-c4ccc(N5CCNCC5)nc4)cc23)c1F [Compound 111, 3-[4-(2,3-Difluoro-phenyl)-4H-[1,2,4]triazol-3-yl]-5-(6-piperazin-1-yl-pyridin-3-yl)-1H-pyrrolo[2,3-b]pyridine] |
| 0.2 to 1 µM | 1 to 12.5 µM | Fc1cccc(-c2cnoc2-c2c[nH]c3nc(Cl)c(-c4ccncc4)cc23)c1F [Compound 103, 6-Chloro-3-[4-(2,3-difluoro-phenyl)-isoxazol-5-yl]-5-pyridin-4-yl-1H-pyrrolo[2,3-b]pyridine] |
| 1 to 12.5 µM | 1 to 12.5 µM | COc1cnc2[nH]cc(-c3nncn3-c3cccc(F)c3F)c2c1 [Compound 108, 3-[4-(2,3-Difluoro-phenyl)-4H-[1,2,4]triazol-3-yl]-5-methoxy-1H-pyrrolo[2,3-b]pyridine] |
| 1 to 12.5 µM | – | Fc1cccc(-c2cnoc2-c2n[nH]c3ncccc23)c1F [Compound 31, 3-(4-(2,3-difluorophenyl)isoxazol-5-yl)-1H-pyrazolo[3,4-b]pyridine] |
| 1 to 12.5 µM | 1 to 12.5 µM | Fc1cccc(-c2cnoc2-c2c[nH]c3ccc(-c4ccncc4)cc23)c1F [Compound 34, 3-[4-(2,3-Difluoro-phenyl)-isoxazol-5-yl]-5-pyridin-4-yl-1H-indole] |
| < 0.2 µM | < 0.2 µM | C[N+]1(C)CCN(c2ccc(-c3cnc4[nH]cc(-c5oncc5-c5cccc(F)c5F)c4c3)cc2)CC1 [Compound 155] |
| – | 1 to 12.5 µM | c1ccc(-c2cnoc2-c2c[nH]c3ncccc23)cc1 [Compound 35, 3-[4-Phenyl-isoxazol-5-yl]-1H-pyrrolo[2,3-b]pyridine] |
| 0.2 to 1 µM | 1 to 12.5 µM | OB(O)c1cnc2[nH]cc(-c3oncc3-c3cccc(F)c3F)c2c1 [Compound 154] |
| 1 to 12.5 µM | 1 to 12.5 µM | Fc1cc(F)c(F)c(-c2cnoc2-c2c[nH]c3ncccc23)c1 [Compound 39, 3-[4-(2,3,5-Trifluoro-phenyl)-isoxazol-5-yl]-1H-pyrrolo [2,3-b]pyridine] |
| 0.2 to 1 µM | < 0.2 µM | CN(C)C1CCC(c2cnc3[nH]cc(-c4oncc4-c4cccc(F)c4F)c3c2)CC1 (stereo not drawn) [Compound 141, (4-{3-[4-(2,3-Difluoro-phenyl)-isoxazol-5-yl]-1H-pyrrolo[2,3-b]pyridin-5-yl}-cyclohexyl)-dimethylamine] |
| 1 to 12.5 µM | 1 to 12.5 µM | OCc1cnc2[nH]cc(-c3oncc3-c3cccc(F)c3F)c2c1 [Compound 55, {3-[4-(2,3-Difluoro-phenyl)-isoxazol-5-yl]-1H-pyrrolo[2,3-b]pyridin-5-yl}-methanol] |
| < 0.2 µM | 1 to 12.5 µM | NC(=O)c1ccc(-c2cnc3[nH]cc(-c4oncc4-c4cccc(F)c4F)c3c2)cc1 [Compound 153] |
| 1 to 12.5 µM | 1 to 12.5 µM | Fc1ccc(F)c(-c2cnoc2-c2c[nH]c3ncccc23)c1F [Compound 41, 3-[4-(2,3,6-Trifluoro-phenyl)-isoxazol-5-yl]-1H-pyrrolo [2,3-b]pyridine] |
| 0.2 to 1 µM | 0.2 to 1 µM | Fc1cccc(-c2cnoc2-c2c[nH]c3ncc(CCn4cncn4)cc23)c1F [Compound 132, 3-[4-(2,3-Difluoro-phenyl)-isoxazol-5-yl]-5-(2-[1,2,4]triazol-1-yl-ethyl)-1H-pyrrolo[2,3-b]pyridine] |
| < 0.2 µM | 0.2 to 1 µM | CN1CCN(C(=O)[C@H]2C[C@@H]2c2cnc3[nH]cc(-c4oncc4-c4cccc(F)c4F)c3c2)CC1 (relative stereo) [Compound 142, trans-(2-{3-[4-(2,3-Difluoro-phenyl)-isoxazol-5-yl]-1H-pyrrolo[2,3-b]pyridin-5-yl}-cyclopropyl)-(4-methyl-piperazin-1-yl)-methanone] |
| 1 to 12.5 µM | 0.2 to 1 µM | Fc1cccc(-c2cnoc2-c2c[nH]c3ncc(Cl)cc23)c1F [Compound 44, 3-[4-(2,3-Difluoro-phenyl)-isoxazol-5-yl]-5-chloro-1H-pyrrolo[2,3-b]pyridine] |
| 1 to 12.5 µM | 1 to 12.5 µM | O=C(c1cnc2[nH]cc(-c3oncc3-c3cccc(F)c3F)c2c1)N1CCCC1 [Compound 104, {3-[4-(2,3-Difluoro-phenyl)-isoxazol-5-yl]-1H-pyrrolo[2,3-b]pyridin-5-yl}-pyrrolidin-1-yl-methanone] |
| 0.2 to 1 µM | 1 to 12.5 µM | Cc1cnc2[nH]cc(-c3oncc3-c3cccc(F)c3F)c2c1 [Compound 46, 3-[4-(2,3-Difluoro-phenyl)-isoxazol-5-yl]-5-methyl-1H-pyrrolo[2,3-b]pyridine] |
| 1 to 12.5 µM | 1 to 12.5 µM | Fc1cnc2[nH]cc(-c3oncc3-c3cccc(F)c3F)c2c1 [Compound 45, 3-[4-(2,3-Difluoro-phenyl)-isoxazol-5-yl]-5-fluoro-1H-pyrrolo[2,3-b]pyridine] |
